US20240002491A1, “METHODS FOR SELECTING PATIENTS FOR TREATMENT WITH AN NGF ANTAGONIST” (Regeneron Pharmaceuticals, Inc., priority 2022, published 2024)

Test system: patients with OA of the knee and/or hip
Assay: Integrated summary of efficacy (ISE): change in WOMAC pain subscale score at 16 weeks by joint subgroup
Assay type: in vivo, human
Conditions: 1Q4 and 1Q8 regimens; all joint subgroups; 95% confidence intervals excluded zero only for the 1-2 and 3-4 joint subgroups
Source text: The integrated summary of efficacy (ISE) examined the change in WOMAC pain subscale score at 16 weeks in each of the above subgroups and is illustrated in the Forrest plot below (FIG. 4).

## Fasinumab: fully-human high-affinity monoclonal antibody directed against NGF; HCVR/LCVR SEQ ID NOs: 2/10
  change in WOMAC pain subscale score at 16 weeks compared with placebo: numerically greater improvement compared with placebo
